Assays:
[1] = Pharmacokinetic profile evaluation in mice; assay type: in vivo, CD-1 mice; conditions: CD-1; mouse, oral administration at 10 mg/kg, plasma
Experimental: Example C: Pharmacokinetic Profile Evaluation
Three CD-1 mice of SPF. (Sino-British SIPPR/BK Lab Animal Ltd, Shanghai.) were intravenously administrated with given compounds (Formulation: 5% DMSO+10% Solutol+85% Saline) or orally gavage administrated with given compounds (Formulation: 5% DMSO+10% Solutol+85% Saline). The blood samples were taken via cephalic vein at timepoints 0.083 h, 0.25 h, 0.5 h, 1 h, 2 h, 4 h, 8 h, and 24 h after intravenous (iv) administration or at timepoints 0.25 h, 0.5 h, 1 h, 2 h, 4 h, 6 h, 8 h, and 24 h after oral gavage administration, 30 μL/time point. Blood samples were placed in tubes containing K2-EDTA and stored on ice until centrifuged. The blood samples were centrifuged at 6800 g for 6 minutes at 2-8° C. within 1 h after collected and stored frozen at approximately −80° C. An aliquot of 20 μL plasma samples were protein precipitated with 400 μL MeOH in which contains 100 ng/mL Verapamil (IS). The mixture was vortexed for 1 min and centrifuged at 18000 g for 10 min. Transfer 400 μL supernatant to 96 well plates. An aliquot of 5 μL supernatant was injected for LC-MS/MS analysis by LC-MS/MS-27 (TQ6500+) instrument. The analytical results were confirmed using quality control samples for intra-assay variation. The accuracy of >66.7% of the quality control samples should be between 80-120% of the known value(s). Standard set of parameters including Area Under the Curve (AUC(0-t)), maximum plasma concentration (Cmax), elimination half-life (T1/2) will be calculated using noncompartmental analysis modules in FDA certified pharmacokinetic program Phoenix WinNonlin 7.0 (Pharsight, USA).

TEAD2 = TEAD2 (Homo sapiens, UniProt Q15562); experiment: Thermal shift assay TEAD2; assay type: binding
Chain of TEAD2 (Q15562 whole entry, species assumed): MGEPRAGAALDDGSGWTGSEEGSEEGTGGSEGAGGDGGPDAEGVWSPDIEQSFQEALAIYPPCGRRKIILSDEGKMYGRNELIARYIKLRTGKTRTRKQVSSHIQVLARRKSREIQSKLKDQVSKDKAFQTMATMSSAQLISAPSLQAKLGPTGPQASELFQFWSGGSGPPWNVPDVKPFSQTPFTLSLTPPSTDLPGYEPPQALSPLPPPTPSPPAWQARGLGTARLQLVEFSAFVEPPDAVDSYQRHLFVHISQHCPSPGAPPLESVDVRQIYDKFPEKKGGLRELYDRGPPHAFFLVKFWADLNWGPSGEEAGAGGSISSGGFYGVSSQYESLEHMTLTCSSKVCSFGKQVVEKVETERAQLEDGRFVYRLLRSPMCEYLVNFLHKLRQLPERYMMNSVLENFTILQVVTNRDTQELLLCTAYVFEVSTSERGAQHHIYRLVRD
Procedure, shortened: (§1)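 Compounds tested at 10 μM and 1 μM, 0.1% DMSO final, with TEAD1 at 0.2 mg/ml or TEAD2 at 0.08 mg/ml final. Melting monitored with Protein Thermal Shift dye on a qPCR instrument.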

NCI-H226 cells = experiment: Cell growth assay (CellTiter-Glo); assay type: cell-based, human; conditions: Homo sapiens, NCI-H226, 168 h, 7 days treatment, CellTiter-Glo luminescence, read-out: H226 CTG IC50
TEAD1 = TEAD1 (Homo sapiens, UniProt P28347); experiment: Thermal shift assay TEAD1; assay type: binding
Chain of TEAD1 (P28347 whole entry, species assumed): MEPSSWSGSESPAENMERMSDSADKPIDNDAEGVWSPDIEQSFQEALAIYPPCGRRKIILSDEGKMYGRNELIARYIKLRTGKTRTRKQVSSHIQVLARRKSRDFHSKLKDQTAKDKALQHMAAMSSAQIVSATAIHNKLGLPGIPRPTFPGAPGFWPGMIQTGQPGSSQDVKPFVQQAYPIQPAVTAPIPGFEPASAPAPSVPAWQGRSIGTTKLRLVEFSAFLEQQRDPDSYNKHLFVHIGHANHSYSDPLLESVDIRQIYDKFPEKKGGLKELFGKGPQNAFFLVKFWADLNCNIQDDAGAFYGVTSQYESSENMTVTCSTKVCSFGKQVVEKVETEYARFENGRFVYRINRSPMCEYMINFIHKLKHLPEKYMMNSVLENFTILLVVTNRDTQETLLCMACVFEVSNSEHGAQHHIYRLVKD
Procedure, shortened: as §1

TEAD3 = TEAD3 (Homo sapiens, UniProt Q99594); experiment: Thermal shift assay TEAD3; assay type: binding
Chain of TEAD3 (Q99594 whole entry, species assumed): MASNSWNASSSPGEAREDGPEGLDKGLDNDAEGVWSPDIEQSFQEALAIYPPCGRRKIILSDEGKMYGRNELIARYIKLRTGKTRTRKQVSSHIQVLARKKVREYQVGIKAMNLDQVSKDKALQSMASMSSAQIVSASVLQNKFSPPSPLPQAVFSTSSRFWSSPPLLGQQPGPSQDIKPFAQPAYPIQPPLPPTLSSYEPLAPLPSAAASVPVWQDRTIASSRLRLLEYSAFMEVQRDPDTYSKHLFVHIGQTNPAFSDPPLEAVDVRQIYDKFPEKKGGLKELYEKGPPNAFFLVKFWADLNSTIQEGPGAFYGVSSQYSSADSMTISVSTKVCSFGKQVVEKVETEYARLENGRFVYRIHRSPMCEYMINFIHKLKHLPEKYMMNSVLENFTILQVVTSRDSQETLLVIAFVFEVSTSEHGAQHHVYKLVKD
Procedure, shortened: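 TEAD3 protein at 0.1 mg/ml final melted with Protein Thermal Shift dye on a qPCR instrument. Compounds tested at 10 μM and 1 μM in PBS, final DMSO 0.1%.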

TEAD4 = TEAD4 (Homo sapiens, UniProt Q15561); experiment: Thermal shift assay TEAD4; assay type: binding
Chain of TEAD4 (Q15561 whole entry, species assumed): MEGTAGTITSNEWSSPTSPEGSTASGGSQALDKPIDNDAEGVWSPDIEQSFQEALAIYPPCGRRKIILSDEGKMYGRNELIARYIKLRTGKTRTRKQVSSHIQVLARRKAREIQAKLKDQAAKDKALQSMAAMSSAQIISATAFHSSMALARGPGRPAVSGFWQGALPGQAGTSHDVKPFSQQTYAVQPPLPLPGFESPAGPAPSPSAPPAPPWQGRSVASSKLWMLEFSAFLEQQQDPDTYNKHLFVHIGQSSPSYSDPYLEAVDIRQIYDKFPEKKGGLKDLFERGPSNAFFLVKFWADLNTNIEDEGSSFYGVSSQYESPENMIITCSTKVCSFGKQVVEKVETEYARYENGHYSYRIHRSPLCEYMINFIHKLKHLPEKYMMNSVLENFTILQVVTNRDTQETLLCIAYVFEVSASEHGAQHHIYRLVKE
Procedure, shortened: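 Protein thermal shift with TEAD4 at 0.1 mg/ml final, Protein Thermal Shift dye, compounds at 10 μM or 1 μM in PBS with 0.1% DMSO final. Melt reactions assembled on ice and run on a qPCR instrument.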

[2] = system: human lung cancer NCI-H226 xenograft; experiment: In vivo anti-tumor efficacy, NCI-H226 xenograft model (TGI); parameters: species or system BALB/c Nude mice; conditions: QD, oral, tumor volume at day 21
Experimental: (§2) Example D: In Vivo Pharmacodynamic and Efficacy Study
(§3) The objective of the research is to evaluate the in vivo anti-tumor efficacy of Example 58b, 64, 75a in human lung cancer NCI-H226 xenograft model in BALB/c Nude mice. (Jiangsu GemPharmatech Co., Ltd, female, 6-9 weeks)
(§4) The NCI-H226 cancer cells was maintained in vitro with RPMI1640 medium supplemented with 10% fetal bovine serum at 37° C. in an atmosphere of 5% CO2 in the air. The cells in exponential growth phase will be harvested and quantitated by cell counter before tumor inoculation. Each mouse was inoculated subcutaneously it the right front flank region with NCI-H226 tumor cells (lx 107) in 0.2 ml of PBS mixed with Matrigel (1:1) for tumor development. Animals were randomized when the average tumor volume reached 150-200 mm^3. The test article was administered to the mice orally once a day from the day of grouping, total 21 days (QD×21 Days). Body weight change of animals was monitored regularly as an indicator of drug safety. The major endpoint was to see if the tumor growth could be delayed or mice could be cured. Tumor sizes were measured two times per week in two dimensions using a caliper, and the volume were expressed in mm^3 using the formula: V=0.5a×b^2 where a and b are the long and short diameters of the tumor, respectively.
(§5) The tumor volume were then used for the calculations of TGI. TGI is calculated for each group using the formula: TGI (%)=[1−(Ti−T0)/(Ci−C0)]×100; Ti is the average tumor volume of a treatment group on a given day, T0 is the average tumor volume of the treatment group on the first day of treatment, Ci is the average tumor volume of the vehicle control group on the same day with Ti, and C0 is the average tumor volume of the vehicle group on the first day of treatment. To compare tumor volumes of different groups at a pre-specified day, Bartlett's test was used to check the assumption of homogeneity of variance across all groups.

[3] = Body weight change in NCI-H226 xenograft study; assay type: in vivo, BALB/c Nude mice; conditions: QD, oral, day 21 compared to day 1
Experimental: as §2, §3, §4, §5

Row | Compound | AUC(0-t) [1] [ng·h/mL] | Cmax [1] [ng/mL] | half-life [1] [h] | TEAD2 ΔTm (TEAD2) [°C] | IC50 (NCI-H226 cells) [nM] | TEAD1 ΔTm (TEAD1) [°C] | TEAD3 ΔTm (TEAD3) [°C] | TEAD4 ΔTm (TEAD4) [°C] | TGI ([2]; 1 mg/kg) [%] | TGI ([2]; 3 mg/kg) [%] | TGI ([2]; 10 mg/kg) [%] | TGI ([2]; 30 mg/kg) [%] | Body weight change ([3]; 1 mg/kg) | Body weight change ([3]; 3 mg/kg) | Body weight change ([3]; 10 mg/kg) | Body weight change ([3]; 30 mg/kg) | TGI ([2]; 60 mg/kg) [%] | Body weight change ([3]; 60 mg/kg)
1 | Cn1cc2cc(-c3ccc(C(F)(F)F)cc3)cc(C3C[C@H]3C(=O)O)c2n1 (mixture of isomers) [Example 2] | 104000 | 9750 | 5.4 | 7 | < 100 | 8.1 | 2.7 | 11.4 |  |  |  |  |  |  |  |  |  | 
2 | Cn1cc2cc(Oc3ccc(C(F)(F)F)cc3)cc(C3C[C@H]3C(=O)O)c2n1 (mixture of isomers) [Example 16] | 676000 | 40100 | 26.4 | 12.7 | 100 to 500 | 11.6 | 13.1 | 11.8 |  |  |  |  |  |  |  |  |  | 
3 | O=C(O)[C@@H]1CC1c1cc(Oc2ccc(C(F)(F)F)cc2)cc2cccnc12 (mixture of isomers) [Example 17] | 497000 | 33700 | 26 | 14.2 | 100 to 500 | 9.2 | 11.7 | 10.1 |  |  |  |  |  |  |  |  |  | 
4 | Cn1ncc2c(C3C[C@H]3C(=O)O)cc(Oc3ccc(C(F)(F)F)cc3)cc21 (mixture of isomers) [Example 18] | 617000 | 41200 | 11.2 | 14 | 100 to 500 | 8.8 | 7.4 | 9.1 |  |  |  |  |  |  |  |  |  | 
5 | CNC(=O)[C@@H]1CC1c1cc(-c2ccc(C(F)(F)F)cc2)cc2c1cnn2C (mixture of isomers) [Example 24] | 70000 | 5530 | 5.2 | 4.5 | 100 to 500 | 2.4 | 0.3 | 2.4 |  |  |  |  |  |  |  |  |  | 
6 | CNC(=O)[C@H]1C[C@@H]1c1cc(Oc2ccc(C(F)(F)F)cc2)cc2cn(C)nc12 (single isomer, unassigned) [Example 34b] | 31800 | 3180 | 2.2 | 14.2 | < 100 | 10.2 | 10.9 | 11.3 |  |  |  |  |  |  |  |  |  | 
7 | Cn1cc2cc(Oc3ccc(C(F)(F)F)cc3)cc([C@H]3C[C@@H]3C(=O)N3CC(O)C3)c2n1 (single isomer, unassigned) [Example 58b] | 17200 | 1710 | 3.6 | 12.9 | < 100 | 9.2 | 10.9 | 11.3 | 95 | 103 | 128 | 145 | +8.2% | +4.0% | +1.6% | +2.9% |  | 
8 | Cn1cc2cc(Oc3ccc(C(F)(F)F)cc3)cc([C@@H]3C[C@H]3C(=O)N3CC[C@H](O)[C@@H](O)C3)c2n1 (single isomer, unassigned) [Example 75a] | 10700 | 1650 | 2.3 | 12.2 | < 100 | 9.0 | 10.0 | 11.3 |  | 90 | 119 | 150 |  | +6.7% | +3.0% | +4.0% | 149 | +1.5%
9 | Cn1cc2cc(Oc3ccc(C(F)(F)F)cc3)cc(C3C[C@H]3C(=O)N3C[C@@H]4C[C@H]3C[C@@H]4O)c2n1 (single isomer, unassigned) [Example 103f] | 51600 | 4120 | 4.8 | 9.8 | < 100 | 8.2 | 9.2 | 11.1 |  |  |  |  |  |  |  |  |  | 
10 | CNS(=O)(=O)CCc1cc(-c2ccc(C(F)(F)F)cc2)cc2cn(C)nc12 [Example 44] | 16100 | 2470 | 2.6 | 7.6 | < 100 | 9.1 | 3.0 | 10 |  |  |  |  |  |  |  |  |  | 
11 | CNS(=O)(=O)CCc1cc(Oc2ccc(C(F)(F)F)cc2)cc2cn(C)nc12 [Example 45] | 11500 | 3100 | 2.2 | 10.3 | 100 to 500 | 9.3 | 4 | 10.6 |  |  |  |  |  |  |  |  |  | 
